Data set [1] concerns transgenic mouse glioma cells (neurosphere cultures). Briefly: CytoTox-Fluor cytotoxicity assay, neurosphere glioma cultures. Type of data set: cell-based. The settings on record: cdkn2a deletion, PDGFB amplification, TRPV1-deficient; 24 h; 5 at 20 μM, CBD at 10 μM. The method, then:
FIGS. 5A-D. Activity of 5 against neurosphere glioma cell cultures with clinically relevant mutations. Transgenic mouse glioma cells of defined molecular subtypes were generated by forced expression of EGFRvIII (classical GBM subtype), PDGFB (proneural GBM subtype) in cdkn2a-deficient and cdkn2a/TRPV1-doubly deficient subventricular neural precursors (NPC). These primary cell cultures were treated for 24 hours either with 10 μM CBD versus a corresponding vehicle-control (containing 0.01% DMSO) or 20 μM of 5 versus vehicle control (0.02% DMSO). Cytotoxicity was measured 24 h after incubation and base-line cytotoxicity levels in the controls were arbitrarily defined as 1. Read-outs from treated cells were normalized to their respective vehicle controls and -fold change of relative cytotoxicity was calculated. Each bar represents the mean±SD from two independent experiments; statistical significance, as determined by unpaired t-tests, is indicated: *** represents p<0.001; ** p<0.005; * p=0.0257; ns not significant).
Human mammary carcinoma MCF-7 (ATCC HTB22) cells were cultured in RPMI supplemented with 10% FBS. […]
The CytoTox-Fluor cytotoxicity assay from Promega has been used according to manufacturer's instructions. […] After 2 hours of incubation at 37° C., the fluorescence intensity was measured using the Tecan InfiniteF200 fluorescence plate reader (485 nm Ex/520 nm Em). […]

Data set [2] has as its system human MCF-7 breast cancer. The data set can be described thus: MTT antiproliferative assay, MCF-7. The settings on record: Homo sapiens, MCF7, 72 h treatment, sextuplicates, read-out: GI50 in vitro values, MCF-7. It counts as cell-based. The procedure:
(§1) Human mammary carcinoma MCF-7 (ATCC HTB22) cells were cultured in RPMI supplemented with 10% FBS. The U87 cells (ATCC HTB-14) were cultured in DMEM culture medium, while the A549 cells (DSMZ ACC107) were cultured in RPMI culture medium supplemented with 10% heat-inactivated FBS. The GBM Hs683 (ATCC HTB-138) cells were cultivated in DMEM supplemented with 10% FBS. The human uterine sarcoma MES-SA (ATCC CRL1966) and MES-SA/D×5 cells were cultured in RPMI-1640 medium supplemented with 10% FBS with MES SA/D×5 maintained in the presence of 500 nM Doxorubicin (Sigma). SKMEL-28 cells (ATCC HTB72) and U373 GBM cells (ECACC 08061901) were cultured in RPMI culture medium supplemented with 10% heat-inactivated FBS. Cell culture media were supplemented with 4 mM glutamine (Lonza code BE17-605E), 100 μg/mL gentamicin (Lonza code 17-5182), and penicillin-streptomycin (200 units/ml and 200 μg/ml) (Lonza code 17-602E). The MDA-MB-231 (ATCC HTB-26) epithelial mammary adenocarcinoma cells were cultured in Eagle's minimum essential medium (EMEM; Invitrogen) containing 5% fetal calf serum (FCS, Cambrex), 2 mM L-glutamine (Invitrogen), 0.06% HEPES (Invitrogen) and penicillin (50 IU/ml)/streptomycin (50 µg/ml; Invitrogen) at 37° C. in a humidified atmosphere of 5% CO2 in air. Transformed mouse NPCs were cultured in suspension under neurosphere conditions at 37° C. in a humidified atmosphere of […] and 5% CO2 in DMEM F12 (Invitrogen 11320-074) supplemented with 1×B27 supplement (Invitrogen 17504-044), 5% penicillin-streptomycin (Biochrom 10378-017), 10 ng/ml EGF (R&D systems 236-EG), 10 ng/ml FGF (PeproTech 100-18B).
(§2) Antiproliferative properties of the synthesized compounds were evaluated by the MTT assay. All compounds were dissolved in DMSO at a concentration of either 100 μM or 50 μM prior to cell treatment. The cells were trypsinized and seeded at various cell concentrations depending on the cell type. The cells were grown for 24 h to 72 h, treated with compounds at concentrations ranging from 0.001 to 100 μM and incubated for 48 or 72 h in 100 or 200 μL media depending on the cell line used. The number of experiments and replicates varied depending on the cell line. Cells treated with 0.1% DMSO were used as a negative control; 1 μM PAO was used as a positive control.
(§3) The synthesized C12-Wittig derivatives were evaluated for antiproliferative activities in a panel of cancer cell lines that included apoptosis-resistant human U373 glioblastoma (GBM) (Lefranc et al., 2013), human A549 non-small cell lung cancer (NSCLC) and human SKMEL-28 melanoma (Mathieu et al., 2009) as well as apoptosis-sensitive human Hs683 anaplastic oligodendroglioma (Lefranc et al., 2013) and human MCF-7 breast cancer (Frolova et al., 2013).
(Tetrazolium dyes change colour on reduction, which living cells bring about.)

Data set [3] concerns panel of cancer cell lines (A549, SKMEL-28, MCF-7, U373, Hs683). Briefly: MTT antiproliferative assay, panel of five cancer cell lines. Type of data set: cell-based, human. The settings on record: Homo sapiens; mean over five cell lines, 72 h treatment, MTT assay; read-out: GI50 in vitro values, Mean + SEM. The procedure:
as §2, §3

The test system of data set [4] is U373 human glioma cell line. Briefly: Quantitative videomicroscopy, U373. It counts as cell-based. The settings on record: at GI50 concentrations (Table 1). The method, then:
FIG. 8. In vitro videomicroscopic analysis of the anticancer effects of 1 and its C12-Wittig derivatives 5 and 13. The U373 human glioma cell line was treated with polygodial, 5 and 13 at their mean GI50 concentrations (Table 1) or left untreated. Videomicroscopy enabled taking pictures of the culture field every 4 minutes. The experiment was conducted once in triplicate. While the morphology of cells treated with 1 was fixed over time, 5 and 13 exerted cytostatic effects on U373 cells.
In an effort to gain insight into possible mechanisms associated with antiproliferative properties of 1 and the C12-Wittig derivatives, the morphological changes in cells treated with these compounds were studied with computer-assisted phase-contrast microscopy (Luchetti et al., 2012) (quantitative videomicroscopy).

In another data set the test system is human SKMEL-28 melanoma. Briefly: MTT antiproliferative assay, SKMEL-28. It counts as cell-based. The settings on record: Homo sapiens, SK-MEL-28, 72 h treatment, sextuplicates, read-out: GI50 in vitro values, SKMEL-28. The procedure:
as §1, §2, §3

For data set [5], the system named is human U373 glioblastoma (GBM). Briefly: MTT antiproliferative assay, U373. It counts as cell-based. The settings on record: Homo sapiens, U373 MG, 72 h treatment, sextuplicates, read-out: GI50 in vitro values, U373. The method, then: as §1, §2, §3
In data set [6] the test system is human A549 non-small cell lung cancer (NSCLC). The data set can be described thus: MTT antiproliferative assay, A549. It counts as cell-based. The procedure: as §1, §2, §3
For data set [7], the system named is human Hs683 anaplastic oligodendroglioma. Briefly: MTT antiproliferative assay, Hs683. Type of data set: cell-based. The settings on record: Homo sapiens, Hs 683, 72 h treatment, sextuplicates, read-out: GI50 in vitro values, Hs683. The procedure: as §1, §2, §3
The next data set has as its system U373 cells. Briefly: Trypan blue viability assay, U373. Type of data set: cell-based, human. The settings on record: 72 h treatment. The procedure: FIG. 9. Viability of U373 cells by trypan blue staining. U373 cells were treated for 72 h with 1 or 13 and stained with trypan blue. The experiment was conducted once in triplicate. After having taken pictures, cells were fixed with ice-cold methanol and again stained with trypan blue as internal positive control.
To confirm the results obtained in the videomicroscopy experiments, trypan blue assay was employed to detect necrotic and late apoptotic cells that had lost their plasma membrane integrity (FIG. 9). […] These observations support the results of the MTT assay and provide an explanation for the effectiveness of the C12-Wittig derivatives against cells, which display resistance to apoptosis induction. In contrast, at the concentrations necessary to induce cancer cell death 1 behaves as a toxic fixative compound of little promise as a potential drug.

Data set [8] has as its system uterine sarcoma MES-SA cells. Briefly: MTT antiproliferative assay, MES-SA. Type of data set: cell-based, human. The settings on record: Homo sapiens, MES-SA, 48 h treatment, relative to DMSO control, read-out: GI50 in vitro values, MES-SA. The method, then:
as §1
(§4) Antiproliferative properties of the synthesized compounds were evaluated by the MTT assay. All compounds were dissolved in DMSO at a concentration of either 100 μM or 50 μM prior to cell treatment. The cells were trypsinized and seeded at various cell concentrations depending on the cell type. […]

The test system of data set [9] is MDR uterine sarcoma cell line MES-SA/Dx5. Briefly: MTT antiproliferative assay, MDR MES-SA/Dx5. The settings on record: for change of potency against MES-SA/Dx5 MDR cell line as compared with parent MES-SA cells: 48 h MTT; for GI50: Homo sapiens, MES-SA/Dx5, 48 h treatment, MTT assay, relative to DMSO control, read-out: GI50 in vitro values, MES-SA/Dx5. It counts as cell-based, human. The procedure: as §1, §2
Selection of the MES-SA/D×5 cell line was done according to Harker et al. (Harker & Sikic, 1985). The cells were split and allowed to adhere overnight. The next day cells were initially exposed to doxorubicin (DOX) at the concentration of 100 nM, which represented the GI50 concentration. The cells were maintained at this DOX concentration until their growth rate reached that of the untreated cells. The DOX concentration was then increased in two-fold increments following the same growth criteria at each concentration to a final DOX concentration of 500 nM. Each new DOX concentration required approximately 2 passages to reach the growth rate of the untreated cells.
Often, tumors initially respond to chemotherapy but eventually become refractory to the continuing treatment. Such acquired resistance commonly occurs through the development of a multi-drug resistant phenotype (MDR) (Gottesman et al., 2002 and Saraswathy & Gong, 2013) affecting many common chemotherapeutic agents, including the vinca alkaloids (Chen et al., 2000) and taxanes (Geney et al., 2002). In addition, the development of apoptosis resistance and MDR mechanisms is often related and concurrent (Ruefli et al., 2002 and Johnstone et al., 1999), and thus it was of interest to evaluate 5 against MDR cells. Towards this end, the MDR uterine sarcoma cell line MES-SA/D×5, established by growing the parent uterine sarcoma MES-SA in the presence of increasing concentrations of doxorubicin and resistant to multiple functionally and structurally unrelated molecules (Harker & Sikic, 1985), was utilized.

For data set [10], the system named is U87 glioblastoma cell cultures. The data set can be described thus: MTT growth curves, U87. Type of data set: cell-based, human. The settings on record: apoptosis-resistant U87 GBM; concentrations up to 100 μM. The method, then: as §1, §4

As for `C=C(C)[C@@H]1CCC(C)=C[C@H]1c1c(O)cc(CCCCC)cc1O` [CBD, cannabidiol, reference compound], the “cytotoxicity against GBM neurosphere cultures lacking the TRPV1 gene” value in data set [1] is given as “loses its activity”.

Take `C#CCCCOC(=O)/C=C/C1=CC[C@H]2C(C)(C)CCC[C@]2(C)[C@H]1C=O` [Compound 13]: the GI50 in [2] came to 30 µM; in [3], 33 ± 1 µM; in the data set on human SKMEL-28 melanoma, 36 µM; in [5] it was 35 µM; in data set [6] (Homo sapiens, A549, 72 h treatment, MTT assay, sextuplicates, read-out: GI50 in vitro values, A549), 30 µM; in data set [7], 33 µM. Further, in [4], the “morphological effect by videomicroscopy” value is “inhibited cancer cell proliferation without inducing cell death”. For the same molecule, in the data set with U373 cells, the “viability by trypan blue staining” value is reported as “still alive after 72 hr of treatment”.

Regarding `CC(=O)O[C@H]1C(=O)[C@@]2(C)[C@H]([C@H](OC(=O)c3ccccc3)[C@]3(O)C[C@H](OC(=O)[C@H](O)[C@@H](NC(=O)c4ccccc4)c4ccccc4)C(C)=C1C3(C)C)[C@]1(OC(C)=O)CO[C@@H]1C[C@@H]2O` [Paclitaxel], in data set [8], the GI50 turned out to be 0.007 µM. Further, in data set [6] (apoptosis-resistant A549 NSCLC, concentrations up to 100 μM), the “effect on proliferation/viability of all cells, A549” value is reported as “no effect on proliferation of ca. 50% of cells”. In addition, in data set [9], the “change of potency against MES-SA/Dx5 MDR cell line as compared with parent MES-SA cells” value was “lost their potency by a factor of a thousand” and the GI50 was determined as 10 µM. Moreover, the “effect on proliferation/viability of all cells, U87” value in data set [10] is recorded as “no effect on proliferation of ca. 50% of cells”.

On to `CC[C@]1(O)C[C@@H]2CN(CCc3c([nH]c4ccccc34)[C@@](C(=O)OC)(c3cc4c(cc3OC)N(C)[C@H]3[C@@](O)(C(=O)OC)[C@H](OC(C)=O)[C@]5(CC)C=CCN6CC[C@]43[C@@H]65)C2)C1` [Vinblastine], for which the GI50 in data set [8] was determined as 0.006 µM. Further, in data set [9], the “change of potency against MES-SA/Dx5 MDR cell line as compared with parent MES-SA cells” value is on record as “lost their potency by a factor of a thousand” and the GI50 came out at 5 µM.

The record behind these values is US20180237362A1, “NOVEL POLYGODIAL ANALOGS FOR THE TREATMENT OF CANCER AND OTHER PROLIFERATIVE DISEASES” (THE BOARD OF REGENTS OF THE UNIVERSITY OF TAXAS SYSTEM, priority 2015, published 2018).
